Source: ChEMBL document CHEMBL4507302, “Data for DCP probe TP-020” (2021)

Tests used:
[1] = molecular target: 1-phosphatidylinositol 3-phosphate 5-kinase (Homo sapiens) (UniProt Q9Y2I7); settings: Compound concentration 1000.0 nM
[2] = molecular target: D(3) dopamine receptor (Homo sapiens) (UniProt P35462); settings: Compound concentration 10.0 uM
[3] = system: Receptor-type tyrosine-protein kinase FLT3 (Homo sapiens), P36888 [K663Q]; settings: Compound concentration 1000.0 nM
[4] = molecular target: Vascular endothelial growth factor receptor 3 (Homo sapiens) (UniProt P35916); settings: Compound concentration 1000.0 nM
[5] = molecular target: Insulin-like growth factor 1 receptor (Homo sapiens) (UniProt P08069); settings: Compound concentration 1000.0 nM
[6] = molecular target: Ribosomal protein S6 kinase alpha-3 (Homo sapiens) (UniProt P51812); settings: Compound concentration 1000.0 nM
[7] = molecular target: Cyclin-dependent kinase 18 (Homo sapiens) (UniProt Q07002); settings: Compound concentration 1000.0 nM
[8] = molecular target: Calcium/calmodulin-dependent protein kinase type 1B (Homo sapiens) (UniProt Q6P2M8); settings: Compound concentration 1000.0 nM
[9] = molecular target: Serine/threonine-protein kinase SBK1 (Homo sapiens) (UniProt Q52WX2); settings: Compound concentration 1000.0 nM
[10] = molecular target: Serine/threonine-protein kinase tousled-like 1 (Homo sapiens) (UniProt Q9UKI8); settings: Compound concentration 1000.0 nM
[11] = molecular target: Cyclin-dependent kinase 13 (Homo sapiens) (UniProt Q14004); settings: Compound concentration 1000.0 nM
[12] = molecular target: Rho-associated protein kinase 1 (Homo sapiens) (UniProt Q13464); settings: Compound concentration 1000.0 nM
[13] = molecular target: Serine/threonine-protein kinase PLK2 (Homo sapiens) (UniProt Q9NYY3); settings: Compound concentration 1000.0 nM
[14] = molecular target: Phosphatidylinositol 4-phosphate 5-kinase type-1 alpha (Homo sapiens) (UniProt Q99755); settings: Compound concentration 1000.0 nM
[15] = molecular target: Serine/threonine-protein kinase D1 (Homo sapiens) (UniProt Q15139); settings: Compound concentration 1000.0 nM
[16] = molecular target: Glycogen synthase kinase-3 alpha (Homo sapiens) (UniProt P49840); settings: Compound concentration 1000.0 nM
[17] = molecular target: Dual specificity protein kinase CLK4 (Homo sapiens) (UniProt Q9HAZ1); settings: Compound concentration 1000.0 nM
[18] = system: Epidermal growth factor receptor (Homo sapiens), P00533 [L858R]; settings: Compound concentration 1000.0 nM
[19] = system: Epidermal growth factor receptor (Homo sapiens), P00533 [L858R,T790M]; settings: Compound concentration 1000.0 nM
[20] = molecular target: Phosphatidylinositol 4,5-bisphosphate 3-kinase catalytic subunit alpha isoform (Homo sapiens) (UniProt P42336); settings: Compound concentration 1000.0 nM
[21] = molecular target: Serine/threonine-protein kinase MARK1 (Homo sapiens) (UniProt Q9P0L2); settings: Compound concentration 1000.0 nM
[22] = molecular target: Serine/threonine-protein kinase Nek1 (Homo sapiens) (UniProt Q96PY6); settings: Compound concentration 1000.0 nM
[23] = molecular target: 5'-AMP-activated protein kinase catalytic subunit alpha-1 (Homo sapiens) (UniProt Q13131); settings: Compound concentration 1000.0 nM
[24] = molecular target: Epidermal growth factor receptor (Homo sapiens) (UniProt P00533); settings: Compound concentration 1000.0 nM
[25] = molecular target: Bone morphogenetic protein receptor type-2 (Homo sapiens) (UniProt Q13873); settings: Compound concentration 1000.0 nM
[26] = molecular target: Phosphatidylinositol 4-phosphate 5-kinase type-1 gamma (Homo sapiens) (UniProt O60331); settings: Compound concentration 1000.0 nM
[27] = molecular target: Serine/threonine-protein kinase Nek5 (Homo sapiens) (UniProt Q6P3R8); settings: Compound concentration 1000.0 nM
[28] = molecular target: Cyclin-dependent kinase 4 (Homo sapiens) (UniProt P11802); settings: Compound concentration 1000.0 nM
[29] = molecular target: Phosphorylase b kinase gamma catalytic chain, skeletal muscle/heart isoform (Homo sapiens) (UniProt Q16816); settings: Compound concentration 1000.0 nM
[30] = molecular target: Tyrosine-protein kinase JAK1 (Homo sapiens) (UniProt P23458); settings: Compound concentration 1000.0 nM
[31] = system: Epidermal growth factor receptor (Homo sapiens), P00533 [T790M]; settings: Compound concentration 1000.0 nM
[32] = molecular target: Macrophage-stimulating protein receptor (Homo sapiens) (UniProt Q04912); settings: Compound concentration 1000.0 nM
[33] = molecular target: Serine/threonine-protein kinase D2 (Homo sapiens) (UniProt Q9BZL6); settings: Compound concentration 1000.0 nM
[34] = molecular target: Homeodomain-interacting protein kinase 4 (Homo sapiens) (UniProt Q8NE63); settings: Compound concentration 1000.0 nM
[35] = molecular target: Fibroblast growth factor receptor 4 (Homo sapiens) (UniProt P22455); settings: Compound concentration 1000.0 nM
[36] = system: eIF-2-alpha kinase GCN2 (Homo sapiens), Q9P2K8 [S808G]; settings: Compound concentration 1000.0 nM
[37] = molecular target: Membrane-associated tyrosine- and threonine-specific cdc2-inhibitory kinase (Homo sapiens) (UniProt Q99640); settings: Compound concentration 1000.0 nM
[38] = molecular target: Phosphatidylinositol 5-phosphate 4-kinase type-2 beta (Homo sapiens) (UniProt P78356); settings: Compound concentration 1000.0 nM
[39] = molecular target: Calcium/calmodulin-dependent protein kinase type 1 (Homo sapiens) (UniProt Q14012); settings: Compound concentration 1000.0 nM
[40] = molecular target: Tyrosine-protein kinase Fes/Fps (Homo sapiens) (UniProt P07332); settings: Compound concentration 1000.0 nM
[41] = system: Epidermal growth factor receptor (Homo sapiens), P00533 [UNDEFINED MUTATION]; settings: Compound concentration 1000.0 nM
[42] = molecular target: MAP kinase-activated protein kinase 5 (Homo sapiens) (UniProt Q8IW41); settings: Compound concentration 1000.0 nM
[43] = molecular target: Mitogen-activated protein kinase kinase kinase 7 (Homo sapiens) (UniProt O43318); settings: Compound concentration 1000.0 nM
[44] = molecular target: Mitogen-activated protein kinase kinase kinase 9 (Homo sapiens) (UniProt P80192); settings: Compound concentration 1000.0 nM
[45] = system: Tyrosine-protein kinase ABL1 (Homo sapiens), P00519 [E255K]; settings: Compound concentration 1000.0 nM

Sequence of Serine/threonine-protein kinase Nek5 (Homo sapiens) (Q6P3R8 whole entry): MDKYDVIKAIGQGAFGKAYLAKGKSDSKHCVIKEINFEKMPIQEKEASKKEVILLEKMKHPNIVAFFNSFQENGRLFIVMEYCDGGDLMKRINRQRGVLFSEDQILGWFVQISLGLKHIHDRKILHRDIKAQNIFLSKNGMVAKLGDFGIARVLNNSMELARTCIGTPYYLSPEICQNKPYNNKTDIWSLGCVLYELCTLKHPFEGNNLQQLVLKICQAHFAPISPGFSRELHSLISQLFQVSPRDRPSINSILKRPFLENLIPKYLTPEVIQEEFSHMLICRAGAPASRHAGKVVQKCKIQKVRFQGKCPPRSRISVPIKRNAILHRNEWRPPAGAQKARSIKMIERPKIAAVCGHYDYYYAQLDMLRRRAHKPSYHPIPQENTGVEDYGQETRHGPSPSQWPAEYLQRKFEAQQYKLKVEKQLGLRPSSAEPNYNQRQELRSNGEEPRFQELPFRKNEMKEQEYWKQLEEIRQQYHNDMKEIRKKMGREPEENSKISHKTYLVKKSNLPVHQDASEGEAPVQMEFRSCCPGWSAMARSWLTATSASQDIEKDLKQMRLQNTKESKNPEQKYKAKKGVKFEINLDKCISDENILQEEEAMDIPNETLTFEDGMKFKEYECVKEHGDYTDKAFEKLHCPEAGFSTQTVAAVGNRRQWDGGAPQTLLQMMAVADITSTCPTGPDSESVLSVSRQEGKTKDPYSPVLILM
Sequence of Insulin-like growth factor 1 receptor (Homo sapiens) (P08069 31-736 limits assumed): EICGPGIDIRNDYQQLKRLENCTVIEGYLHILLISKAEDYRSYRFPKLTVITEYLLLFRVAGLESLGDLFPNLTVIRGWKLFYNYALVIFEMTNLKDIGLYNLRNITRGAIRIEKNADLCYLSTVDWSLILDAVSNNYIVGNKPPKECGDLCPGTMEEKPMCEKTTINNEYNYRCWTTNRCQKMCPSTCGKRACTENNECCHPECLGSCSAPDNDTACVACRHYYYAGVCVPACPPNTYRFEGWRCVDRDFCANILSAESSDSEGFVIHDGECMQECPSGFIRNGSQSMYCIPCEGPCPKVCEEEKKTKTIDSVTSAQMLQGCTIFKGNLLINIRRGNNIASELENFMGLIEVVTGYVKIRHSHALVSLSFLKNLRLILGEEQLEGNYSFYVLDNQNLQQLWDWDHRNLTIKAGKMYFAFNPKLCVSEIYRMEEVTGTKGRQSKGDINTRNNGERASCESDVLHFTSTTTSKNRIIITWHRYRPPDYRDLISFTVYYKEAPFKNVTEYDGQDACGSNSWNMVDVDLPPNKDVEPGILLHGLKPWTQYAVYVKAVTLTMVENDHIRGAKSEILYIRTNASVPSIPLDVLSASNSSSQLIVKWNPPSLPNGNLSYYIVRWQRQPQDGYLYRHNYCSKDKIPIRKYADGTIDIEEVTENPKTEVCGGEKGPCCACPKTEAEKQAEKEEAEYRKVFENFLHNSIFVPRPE
Sequence of Insulin-like growth factor 1 receptor (Homo sapiens) (P08069 741-1367 limits assumed): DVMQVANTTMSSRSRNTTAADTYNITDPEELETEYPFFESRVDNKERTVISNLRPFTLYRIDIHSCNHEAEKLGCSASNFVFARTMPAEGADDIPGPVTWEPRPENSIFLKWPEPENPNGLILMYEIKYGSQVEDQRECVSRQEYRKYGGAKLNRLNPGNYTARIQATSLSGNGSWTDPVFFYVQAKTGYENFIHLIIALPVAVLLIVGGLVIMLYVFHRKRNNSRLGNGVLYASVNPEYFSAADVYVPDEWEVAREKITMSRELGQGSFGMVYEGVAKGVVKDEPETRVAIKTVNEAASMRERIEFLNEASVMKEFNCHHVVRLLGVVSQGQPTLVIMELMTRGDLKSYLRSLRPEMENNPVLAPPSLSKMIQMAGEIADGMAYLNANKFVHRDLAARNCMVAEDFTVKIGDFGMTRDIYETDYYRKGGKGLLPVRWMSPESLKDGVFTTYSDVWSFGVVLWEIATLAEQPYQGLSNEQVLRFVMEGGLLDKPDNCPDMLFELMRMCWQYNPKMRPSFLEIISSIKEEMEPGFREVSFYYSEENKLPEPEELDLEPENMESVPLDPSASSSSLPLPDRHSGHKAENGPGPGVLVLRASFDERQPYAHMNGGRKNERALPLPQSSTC
Sequence of Glycogen synthase kinase-3 alpha (Homo sapiens) (P49840 2-483 limits assumed): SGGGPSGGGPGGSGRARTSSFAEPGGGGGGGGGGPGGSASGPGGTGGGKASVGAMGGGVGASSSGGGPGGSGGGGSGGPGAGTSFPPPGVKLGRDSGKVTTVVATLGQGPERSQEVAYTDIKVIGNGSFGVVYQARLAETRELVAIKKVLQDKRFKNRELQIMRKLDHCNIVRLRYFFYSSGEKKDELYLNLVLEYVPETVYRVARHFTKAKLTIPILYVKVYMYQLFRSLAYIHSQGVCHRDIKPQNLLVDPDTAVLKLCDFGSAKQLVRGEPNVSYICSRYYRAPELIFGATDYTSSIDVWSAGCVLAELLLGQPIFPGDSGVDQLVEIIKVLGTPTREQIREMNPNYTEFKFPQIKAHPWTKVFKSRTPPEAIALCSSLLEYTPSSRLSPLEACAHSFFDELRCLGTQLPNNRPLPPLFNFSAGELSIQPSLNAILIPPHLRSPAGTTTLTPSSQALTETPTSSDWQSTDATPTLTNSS
Sequence of Tyrosine-protein kinase Fes/Fps (Homo sapiens) (P07332 whole entry): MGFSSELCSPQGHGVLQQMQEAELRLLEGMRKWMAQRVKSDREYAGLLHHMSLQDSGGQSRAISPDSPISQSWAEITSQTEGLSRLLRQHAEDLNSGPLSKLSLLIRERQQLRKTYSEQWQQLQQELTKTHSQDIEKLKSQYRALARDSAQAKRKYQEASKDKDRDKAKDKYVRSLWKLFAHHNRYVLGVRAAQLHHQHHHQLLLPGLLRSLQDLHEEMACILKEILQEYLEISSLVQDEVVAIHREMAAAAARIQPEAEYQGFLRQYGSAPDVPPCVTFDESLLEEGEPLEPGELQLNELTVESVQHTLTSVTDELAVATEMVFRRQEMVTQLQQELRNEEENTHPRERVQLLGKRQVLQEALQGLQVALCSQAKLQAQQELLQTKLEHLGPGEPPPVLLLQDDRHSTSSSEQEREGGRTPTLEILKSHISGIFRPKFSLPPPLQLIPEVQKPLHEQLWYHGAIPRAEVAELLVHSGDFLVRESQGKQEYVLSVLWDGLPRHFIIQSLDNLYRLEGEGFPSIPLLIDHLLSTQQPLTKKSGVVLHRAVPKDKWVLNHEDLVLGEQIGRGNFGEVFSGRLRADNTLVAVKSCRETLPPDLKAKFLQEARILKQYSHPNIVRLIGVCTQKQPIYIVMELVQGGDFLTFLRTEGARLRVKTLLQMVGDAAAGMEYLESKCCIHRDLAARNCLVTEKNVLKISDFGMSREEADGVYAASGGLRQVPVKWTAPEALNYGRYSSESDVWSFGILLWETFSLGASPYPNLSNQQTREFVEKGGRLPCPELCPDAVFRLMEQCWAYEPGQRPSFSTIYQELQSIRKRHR
Sequence of eIF-2-alpha kinase GCN2 (Homo sapiens), Q9P2K8 [S808G] (Q9P2K8 whole entry S808G): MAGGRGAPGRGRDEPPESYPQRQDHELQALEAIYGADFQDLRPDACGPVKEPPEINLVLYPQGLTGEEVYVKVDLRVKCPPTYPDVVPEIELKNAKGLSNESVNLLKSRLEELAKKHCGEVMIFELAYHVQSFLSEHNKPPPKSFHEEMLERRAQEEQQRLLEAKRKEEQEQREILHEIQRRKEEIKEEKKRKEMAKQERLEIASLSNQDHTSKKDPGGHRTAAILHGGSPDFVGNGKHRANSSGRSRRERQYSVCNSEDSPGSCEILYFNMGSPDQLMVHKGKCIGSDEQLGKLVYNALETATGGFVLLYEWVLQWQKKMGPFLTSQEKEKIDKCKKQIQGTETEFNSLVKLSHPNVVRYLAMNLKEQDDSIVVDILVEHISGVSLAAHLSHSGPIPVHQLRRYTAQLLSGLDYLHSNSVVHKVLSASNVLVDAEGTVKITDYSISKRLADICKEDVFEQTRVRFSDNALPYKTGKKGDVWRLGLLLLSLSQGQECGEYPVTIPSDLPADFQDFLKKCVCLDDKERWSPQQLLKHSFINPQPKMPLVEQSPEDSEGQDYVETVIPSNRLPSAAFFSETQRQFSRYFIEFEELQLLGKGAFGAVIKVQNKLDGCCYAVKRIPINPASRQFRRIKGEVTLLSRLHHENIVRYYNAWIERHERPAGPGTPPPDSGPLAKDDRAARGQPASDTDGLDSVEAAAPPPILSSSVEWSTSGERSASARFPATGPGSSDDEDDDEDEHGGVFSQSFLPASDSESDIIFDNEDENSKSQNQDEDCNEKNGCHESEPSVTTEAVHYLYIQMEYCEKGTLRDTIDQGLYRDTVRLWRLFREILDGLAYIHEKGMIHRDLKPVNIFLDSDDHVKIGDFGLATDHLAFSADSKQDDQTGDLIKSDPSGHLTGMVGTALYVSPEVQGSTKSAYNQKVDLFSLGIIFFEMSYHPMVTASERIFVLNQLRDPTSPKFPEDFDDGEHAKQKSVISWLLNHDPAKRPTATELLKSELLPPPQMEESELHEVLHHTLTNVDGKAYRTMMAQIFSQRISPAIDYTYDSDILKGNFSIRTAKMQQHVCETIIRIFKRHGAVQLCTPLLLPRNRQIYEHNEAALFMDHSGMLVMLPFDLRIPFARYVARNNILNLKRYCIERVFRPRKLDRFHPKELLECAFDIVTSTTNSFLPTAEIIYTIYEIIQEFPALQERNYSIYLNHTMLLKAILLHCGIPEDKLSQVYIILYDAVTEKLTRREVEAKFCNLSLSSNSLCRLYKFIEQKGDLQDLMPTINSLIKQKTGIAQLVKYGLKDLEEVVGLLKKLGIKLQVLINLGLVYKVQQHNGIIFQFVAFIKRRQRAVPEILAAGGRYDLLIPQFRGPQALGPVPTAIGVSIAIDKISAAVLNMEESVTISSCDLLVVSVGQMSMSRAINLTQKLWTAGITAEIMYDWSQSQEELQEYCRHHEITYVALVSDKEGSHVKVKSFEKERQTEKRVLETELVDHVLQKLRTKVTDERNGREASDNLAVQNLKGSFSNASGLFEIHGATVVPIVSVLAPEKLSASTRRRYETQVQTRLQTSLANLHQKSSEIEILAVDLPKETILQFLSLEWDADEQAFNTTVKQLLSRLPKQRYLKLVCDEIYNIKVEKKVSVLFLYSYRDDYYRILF

## Nc1cnc(N2CCc3cc(S(=O)(=O)Nc4c(F)cc(Cl)cc4F)cc(N4CCCC4=O)c32)nc1
[1]
  residual activity: 100%
[2]
  inhibition: 7.41%
[3]
  residual activity: 97%
[4]
  residual activity: 86%
[5]
  residual activity: 90%
[6]
  residual activity: 100%
[7]
  residual activity: 100%
[8]
  residual activity: 67%
[9]
  residual activity: 83%
[10]
  residual activity: 100%
[11]
  residual activity: 100%
[12]
  residual activity: 96%
[13]
  residual activity: 100%
[14]
  residual activity: 100%
[15]
  residual activity: 83%
[16]
  residual activity: 100%
[17]
  residual activity: 89%
[18]
  residual activity: 85%
[19]
  residual activity: 77%
[20]
  residual activity: 76%
[21]
  residual activity: 76%
[22]
  residual activity: 46%
[23]
  residual activity: 100%
[24]
  residual activity: 82%
[25]
  residual activity: 100%
[26]
  residual activity: 75%
[27]
  residual activity: 100%
[28]
  residual activity: 86%
[29]
  residual activity: 71%
[30]
  residual activity: 100%
[31]
  residual activity: 88%
[32]
  residual activity: 98%
[33]
  residual activity: 100%
[34]
  residual activity: 100%
[35]
  residual activity: 100%
[36]
  residual activity: 100%
[37]
  residual activity: 99%
[38]
  residual activity: 100%
[39]
  residual activity: 88%
[40]
  residual activity: 100%
[41]
  residual activity: 63%
[42]
  residual activity: 92%
[43]
  residual activity: 100%
[44]
  residual activity: 100%
[45]
  residual activity: 85%

## Cn1nc(C(F)(F)F)cc1-c1cnc(N2CCc3cc(S(=O)(=O)Nc4c(F)cc(Cl)cc4F)cc(N4CCCC4=O)c32)nc1 [TP-020]
[1]
  residual activity: 88%
[2]
  inhibition: 2.14%
[3]
  residual activity: 100%
[4]
  residual activity: 96%
[5]
  residual activity: 94%
[6]
  residual activity: 99%
[7]
  residual activity: 100%
[8]
  residual activity: 80%
[9]
  residual activity: 92%
[10]
  residual activity: 78%
[11]
  residual activity: 79%
[12]
  residual activity: 89%
[13]
  residual activity: 91%
[14]
  residual activity: 100%
[15]
  residual activity: 80%
[16]
  residual activity: 95%
[17]
  residual activity: 90%
[18]
  residual activity: 100%
[19]
  residual activity: 100%
[20]
  residual activity: 100%
[21]
  residual activity: 92%
[22]
  residual activity: 100%
[23]
  residual activity: 98%
[24]
  residual activity: 100%
[25]
  residual activity: 77%
[26]
  residual activity: 93%
[27]
  residual activity: 86%
[28]
  residual activity: 82%
[29]
  residual activity: 98%
[30]
  residual activity: 100%
[31]
  residual activity: 94%
[32]
  residual activity: 100%
[33]
  residual activity: 95%
[34]
  residual activity: 100%
[35]
  residual activity: 69%
[36]
  residual activity: 100%
[37]
  residual activity: 93%
[38]
  residual activity: 100%
[39]
  residual activity: 95%
[40]
  residual activity: 100%
[41]
  residual activity: 100%
[42]
  residual activity: 95%
[43]
  residual activity: 79%
[44]
  residual activity: 100%
[45]
  residual activity: 89%
